How the values were obtained:
[1] = test system: plasma Factor VII enzyme activity; experiment: Mouse Factor VII dosing / Factor VII Activity Assay; format: in vivo; conditions: percent knock down of plasma Factor VII activity, CD-1 mice, 48 h; for KD FVII 0.3 mg/kg: single IV dose 0.3 mg/kg, LNP Chol/DSPC/PEG-DMG 45/44/9/2
Procedure, shortened: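 Female CD-1 mice (~25 g) received a single IV tail-vein dose of lipid-nanoparticle-formulated Factor VII siRNA (0.3 or 0.03 mg/kg). Plasma taken ~48 h later; FVII activity measured chromogenically against vehicle-control plasma standard curve, reported as % knockdown.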

[2] = test system: PLK-1 mRNA; experiment: LS411N Xenograft Assay; format: in vivo, Nu/Nu mice; conditions: percent knock down of PLK-1 mRNA vs control in LS411N tumors, IV 3 mg/kg daily for three days
[3] = test system: human leptin; experiment: Mouse intravenous tail vein injection of modified synthetic leptin mRNA, human leptin ELISA; format: in vivo, C57BL/6 mouse; conditions: human leptin in mouse plasma, 10 μg leptin mRNA, 24 h

SMILES	KD FVII 0.03 mg/kg ([1]; single IV dose 0.03 mg/kg, LNP Chol/DSPC/S010 45/44/9/2) [%]	KD FVII 0.3 mg/kg [1] [%]	LS411 KD 3 × 3 mg/Kg ([2]; LNP Chol/DSPC/PEG-DSG 45/44/9/2) [%]	LS411 KD 3 × 3 mg/Kg ([2]; LNP Chol/DSPC/S010 45/44/9/2) [%]	Leptin expression IV-C57BI/6, 24 h [3] [ng/mL]
CCCCC/C=C\C/C=C\CCCCCCCC(=O)OCCCCOc1cc(CN(C)C)cc(OCCCCOC(=O)CCCCCCC/C=C\C/C=C\CCCCC)c1 [Example 38, (9Z,9′Z,12Z,12′Z)-((5-((dimethylamino)methyl)-1,3-phenylene)bis(oxy))bis(butane-4,1-diyl)bis(octadeca-9,12-dienoate)]	43.6	99	58	60	17.21
CCCCCCCCCCOC(=O)CCCCCCCOc1cc(CN(C)C)cc(OCCCCCCCC(=O)OCCCCCCCCCC)c1 [Example 57, didecyl 8,8′-((5-((dimethylamino)methyl)-1,3-phenylene)bis(oxy))dioctanoate]	–	96.7	–	60	9.17

Reference: patent US10124065B2, “Lipids and lipid compositions for the delivery of active agents” (Novartis AG, priority 2013, dated 2018)
